Consider four compounds from paper PMC10854695, “Using Flavonoid Substitution Status to Predict Anticancer Effects in Human Melanoma Cancers: An In Vitro Study” (Cancers, 2024).

pIC50: −log10 of the molar value.

A short description of series [1]: MTT cell viability assay, normal cells.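 Also: fibroblasts served as non-cancer comparison line for selectivity versus melanoma cells, MTT reduction read as absorbance at 570 nm after 2 h dye exposure, compounds in ≤0.1% DMSO.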 Particulars: human, human skin fibroblasts (CCD25Sk).
Series [2] concerns C32 melanoma cells. In words: Neutral red uptake (NRU) assay, C32. Particulars: Homo sapiens.
Series [3] concerns A375 melanoma cells. In words: Neutral red uptake (NRU) assay, A375. The conditions noted are these: Homo sapiens, read-out: IC50, cytotoxic activity, NRU assay.
Method: (§1) The NRU (neutral red uptake) was conducted as previously described by Szoka and co-workers, with some modifications [22]. Briefly, melanoma cells and fibroblasts were seeded in microplates at the density of 1 × 10^4 cells per well and allowed to adhere for 24 h. […] After treatment, the culture medium was replaced with a neutral red solution (40 µg/mL). An additional 2 h of incubation was performed. The neutral red solution was then removed and the neutral red accumulated in the cells was dissolved in 50% EtOH with 1% of the glacial acetic acid. The absorbance was estimated at 540 nm and IC50 values were calculated using GraphPad Prism software (GraphPad Software, San Diego, CA, USA).
The subject of series [4] is A375 melanoma cells. Nature of the series: MTT cell viability assay, A375.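 Also: Read-out is formazan absorbance at 570 nm after 2 h with MTT, with compounds in at most 0.1% v/v DMSO.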 The conditions noted are these: Homo sapiens.
Method: The MTT colorimetric assay was performed as a preliminary evaluation of the cytotoxicity of the selected flavonoids according to the method described and validated by Strawa et al. [21]. Briefly, melanoma cells and fibroblasts were seeded in 96-well microplates at a density of 1 × 10^4 cells per well. Fibroblasts were used as a control cell line in order to assess the selectivity of the compounds. […] Subsequently, the cells were washed with PBS, incubated with MTT solution for 2 h, and lysed with dimethyl sulfoxide (DMSO) supplemented with 1% (v/v) Sorensen’s glycine buffer. The absorbance was measured using a microplate reader (EPOCH 2, BioTek, Winooski, VT, USA) at a wavelength of 570 nm. The compounds were used at a final DMSO concentration of no more than 0.1% (v/v) in each well. The results were generated from at least three independent experiments. […] The IC50 values were calculated with GraphPad Prism 9 software (GraphPad Software, San Diego, CA, USA).
Series [5] deals with C32 melanoma cells. In words: MTT cell viability assay, C32.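 Also: MTT added for 2 h, cells lysed in DMSO, absorbance read at 570 nm, compound vehicle kept at or below 0.1% DMSO.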 The conditions noted are these: Homo sapiens, read-out: IC50, cytotoxic activity, MTT test.
A short description of series [6]: Neutral red uptake (NRU) assay, normal cells. The conditions noted are these: human, human skin fibroblasts (CCD25Sk).
Method: as §1
Setting [7] is: C32, 24 h, read-out: IC50, cytotoxic activity, NRU assay, C32, 24 h.
Where [8] appears, read: C32, 48 h, read-out: IC50, cytotoxic activity, NRU assay, C32, 48 h.
The mark [9] stands for this setting: C32, 72 h, read-out: IC50, cytotoxic activity, NRU assay, C32, 72 h.
The mark [10] stands for this setting: A-375, 24 h, read-out: IC50, cytotoxic activity, MTT test, A375, 24 h.
The mark [11] stands for this setting: A-375, 48 h, read-out: IC50, cytotoxic activity, MTT test, A375, 48 h.
Setting [12] is: A-375, 72 h, read-out: IC50, cytotoxic activity, MTT test, A375, 72 h.

Turning to `CC1OC(OCC2OC(Oc3cc(O)c4c(=O)cc(-c5ccc(O)cc5)oc4c3)C(O)C(O)C2O)C(O)C(O)C1O` (stereo not drawn) [Compound 5, apigenin 7-O-rutinoside], the IC50 at 24 h in series [1] and in series [6] was over 200 µM in each case. The IC50 at 48 h in series [1] and in series [6] was over 200 µM each time. For the same compound, the IC50 at 72 h in series [1] and in series [6] was over 200 µM each time. Further, the pIC50 was under 3.70 in series [2] (setting [7]); under 3.70 in series [2] (setting [8]); under 3.70 in series [2] (setting [9]); under 3.70 in series [3] (A-375, 24 h); under 3.70 in series [3] (A-375, 48 h); under 3.70 in series [3] (A-375, 72 h). The pIC50 in series [4] (setting [10]) is under 3.70; in series [4] (setting [11]), under 3.70; in series [4] (setting [12]), under 3.70; in series [5] (C32, 24 h) it was under 3.70; in series [5] (C32, 48 h) it was under 3.70; in series [5] (C32, 72 h), under 3.70.
With `O=c1c(-c2ccc(O)cc2)coc2cc(O)ccc12` [Compound 36, daidzein], the IC50 at 24 h in series [1] and in series [6] was over 200 µM throughout. The IC50 at 48 h in series [1] and in series [6] was over 200 µM throughout. The IC50 at 72 h in series [1] and in series [6] was over 200 µM throughout. The pIC50 in series [2] (setting [7]) was under 3.70; in series [2] (setting [8]) it was under 3.70; in series [2] (setting [9]), under 3.70; in series [3] (A-375, 24 h), under 3.70; in series [3] (A-375, 48 h) it was under 3.70; in series [3] (A-375, 72 h), under 3.70. In addition, the pIC50 was under 3.70 in series [4] (setting [10]); under 3.70 in series [4] (setting [11]); under 3.70 in series [4] (setting [12]); under 3.70 in series [5] (C32, 24 h); under 3.70 in series [5] (C32, 48 h); under 3.70 in series [5] (C32, 72 h).
`O=C(O)C1OC(Oc2c(-c3ccc(O)c(O)c3)oc3cc(O)cc(O)c3c2=O)C(O)C(O)C1O` (stereo not drawn) [Compound 27, quercetin 3-O-glucuronide]: the IC50 at 24 h in series [1] and in series [6] was over 200 µM in each case. In addition, the half-maximal inhibitory concentration (IC50) at 48 h in series [1] and in series [6] was over 200 µM throughout. The IC50 at 72 h in series [1] and in series [6] was over 200 µM in each case. For the same compound, the pIC50 in series [2] (setting [7]) was under 3.70; in series [2] (setting [8]) it was under 3.70; in series [2] (setting [9]) it was 3.70 to 4.00; in series [3] (A-375, 24 h) it was under 3.70; in series [3] (A-375, 48 h), under 3.70; in series [3] (A-375, 72 h), under 3.70. Besides, the pIC50 is under 3.70 in series [4] (setting [10]); under 3.70 in series [4] (setting [11]); under 3.70 in series [4] (setting [12]); under 3.70 in series [5] (C32, 24 h); under 3.70 in series [5] (C32, 48 h); under 3.70 in series [5] (C32, 72 h).
For the compound `O=C(O)C1OC(Oc2cc(O)c3c(=O)cc(-c4ccc(O)cc4)oc3c2)C(O)C(O)C1O` (stereo not drawn) [Compound 4, apigenin 7-O-glucuronide], the IC50 at 24 h in series [1] and in series [6] was over 200 µM each time. For the same compound, the IC50 at 48 h in series [1] and in series [6] was over 200 µM each time. In addition, the IC50 at 72 h in series [1] and in series [6] was over 200 µM each time. The pIC50 in series [2] (setting [7]) was under 3.70; in series [2] (setting [8]), under 3.70; in series [2] (setting [9]), under 3.70; in series [3] (A-375, 24 h), under 3.70; in series [3] (A-375, 48 h) it was under 3.70; in series [3] (A-375, 72 h) it was under 3.70. Moreover, the pIC50 in series [4] (setting [10]) is under 3.70; in series [4] (setting [11]) it was under 3.70; in series [4] (setting [12]), under 3.70; in series [5] (C32, 24 h), under 3.70; in series [5] (C32, 48 h) it was under 3.70; in series [5] (C32, 72 h) it was under 3.70.
